Reference: EP2377520A1, “Pharmaceutical compound of prasugrel” (Ratiopharm GmbH, priority 2010, dated 2011)
Values after ≈ are worked out from the molar mass of the structure shown.

Experiments:
[1] = Solubility in water; type: physicochemical; details: in Wasser, freie Base, read-out: Löslichkeit
Experimental: Prasugrel wird als Plättchenaggregationshemmer oral verabreicht. Problematisch hierbei ist, dass es sich bei Prasugrel um einen schwer löslichen Wirkstoff handelt. Die freie Base des Wirkstoffs weist eine Löslichkeit von 57 µg/ml in Wasser auf, aber auch die Salze zeigen nur eine begrenzte Löslichkeit.

[2] = pH-dependent degradation; type: physicochemical; details: pH-Werte < 3; nach bereits 2 Stunden; read-out: Abbau
Text: Darüber hinaus weist Prasugrel auch einen stark pH-abhängigen Abbau auf. Bei pH-Werten von < 3 ist ein Abbau von mehr als 1 % nach bereits 2 Stunden zu beobachten. Dies schränkt die möglichen Hilfsstoffe bei der Herstellung pharmazeutischer Formulierungen ein.

For `CC(=O)Oc1cc2c(s1)CCN(C(C(=O)C1CC1)c1ccccc1F)C2` (centres unmarked) [Prasugrel, 2-Acetoxy-5-(a-cyclopropylcarbonyl-2-fluorbenzyl)-4,5,6,7-tetrahydrothieno[3,2-c]pyridin], the solubility [1] was 57 µg/mL (≈ 153 µM) and the degraded at 2 h [2] was > 1%.
